Results as given in ChEMBL document CHEMBL1123890, “Combined analgesic/neuroleptic activity in N-butyrophenone prodine-like compounds” (J Med Chem, 1987).
pIC50: −log10 of the molar value. The source made the active and inactive calls. No cut-off for these calls is given here.

Assays:
D(1A) dopamine receptor = D(1A) dopamine receptor (Rattus norvegicus, UniProt P18901); test: Inhibitory concentration against rat striatal dopamine (D1) sensitive adenylate cyclase activity; assay type: functional
Sequence of D(1A) dopamine receptor (P18901 whole entry): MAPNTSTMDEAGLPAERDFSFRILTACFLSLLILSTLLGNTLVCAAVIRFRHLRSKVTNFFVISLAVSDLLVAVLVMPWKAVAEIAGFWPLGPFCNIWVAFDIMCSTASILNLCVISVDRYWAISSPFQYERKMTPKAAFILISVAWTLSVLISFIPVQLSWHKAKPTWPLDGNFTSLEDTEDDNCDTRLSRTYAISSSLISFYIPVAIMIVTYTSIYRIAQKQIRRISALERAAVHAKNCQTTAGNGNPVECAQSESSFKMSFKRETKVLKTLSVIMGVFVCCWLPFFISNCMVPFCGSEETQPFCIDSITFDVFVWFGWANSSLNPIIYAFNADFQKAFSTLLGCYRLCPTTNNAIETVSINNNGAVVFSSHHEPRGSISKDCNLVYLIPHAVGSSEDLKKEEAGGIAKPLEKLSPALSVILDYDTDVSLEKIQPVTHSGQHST

Opioid receptor = Opioid receptor (Rattus norvegicus, UniProt P33533+P34975+P33535); test: Ability to inhibit the specific binding of [3H]- dihydromorphine to opiate receptors in rat brain membrane preparation by 50%; assay type: cell membranes
Mus musculus [1] = test: In vivo analgesic activity in mice after subcutaneous administration by hot plate assay method.; assay type: functional; conditions: sc
Rattus norvegicus = species: Rattus norvegicus; test: The dose required to reduce the number of apomorphine induced rotation by 50% in rats with monolateral lesion of nigrostriatal tracts; assay type: functional; conditions: Nigrostriatal tract
D(2) dopamine receptor = D(2) dopamine receptor (Rattus norvegicus, UniProt P61169); test: Ability to inhibit the specific binding of [3H]- spiroperidol to Dopamine receptor D2 in rat striatal membrane preparation by 50%; assay type: cell membranes, Striatum
Sequence of D(2) dopamine receptor (P61169 whole entry): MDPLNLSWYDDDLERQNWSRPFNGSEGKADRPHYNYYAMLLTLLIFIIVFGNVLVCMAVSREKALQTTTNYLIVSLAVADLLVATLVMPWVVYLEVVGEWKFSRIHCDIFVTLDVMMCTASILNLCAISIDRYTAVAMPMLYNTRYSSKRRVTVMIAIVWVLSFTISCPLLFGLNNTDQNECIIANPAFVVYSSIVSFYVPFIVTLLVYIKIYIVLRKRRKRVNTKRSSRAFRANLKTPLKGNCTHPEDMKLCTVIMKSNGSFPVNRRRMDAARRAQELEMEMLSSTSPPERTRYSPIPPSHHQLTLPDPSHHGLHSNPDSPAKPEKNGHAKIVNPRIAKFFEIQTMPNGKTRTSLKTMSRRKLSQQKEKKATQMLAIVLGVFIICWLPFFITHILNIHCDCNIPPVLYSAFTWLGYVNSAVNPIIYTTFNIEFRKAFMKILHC

Mus musculus [2] = test: In vivo analgesic activity in mice after subcutaneous administration by hot plate assay method; assay type: functional; conditions: sc
Mus musculus [3] = test: In vivo analgesic activity in mice after subcutaneous administration by hot plate assay method; inactive at 25 mg; assay type: functional, organism-based

Row | Structure (SMILES) | pIC50 (D(1A) dopamine receptor) | IC50 (Opioid receptor) [nM] | ED50 (Mus musculus [1]) [mg/kg] | ED50 (Rattus norvegicus) [mg/kg] | pIC50 (D(2) dopamine receptor) | ED50 (Mus musculus [2]) [mg/kg] | ED50 (Mus musculus [3])
1 | C[C@H]1CN(CCCC(=O)c2ccc(F)cc2)CCC1(O)c1ccccc1 (some centres not stated) | 5.78 | > 10000 | > 5 | 1.54 |  |  | 
2 | CCC(=O)OC1(c2ccccc2)CCN(CCCC(=O)c2ccc(F)cc2)CC1 | 5.62 | 2.96 |  | 0.2 | 7.54 | 0.32 | 
3 | C[C@@H]1CN(CCCC(=O)c2ccc(F)cc2)CCC1(O)c1ccccc1 (some centres not stated) | 5.58 | > 10000 | > 5 | 0.93 |  |  | 
4 | CCC(=O)OC1CCN(CCCC(=O)c2ccc(F)cc2)CC1 |  | 598 |  | 4.82 | < 4.30 |  | 
5 | CCC(=O)OC1(c2ccccc2)CCN(CCCC(=O)c2ccc(F)cc2)C[C@@H]1C (some centres not stated) | 5.59 | 3.33 |  | 0.22 | 7.47 | 0.23 | 
6 | O=C(CCCN1CCC(O)(c2ccccc2)CC1)c1ccc(F)cc1 | 5.55 | 3215 | > 5 | 0.35 | 7.33 |  | 
7 | CN1CC[C@]23c4c5ccc(O)c4O[C@H]2[C@@H](O)C=C[C@H]3[C@H]1C5.Cl [MORPHINE HYDROCHLORIDE] |  |  | 1.2 |  |  |  | 
8 | O=C(CCCN1CCC(O)CC1)c1ccc(F)cc1 |  | 5500 |  | 5.84 | < 5.30 |  | inactive
9 | O=C(CCCN1CCC(c2ccccc2)CC1)c1ccc(F)cc1 | 5.12 | > 10000 | 5 | 1.31 | 7.16 |  | 
10 | CN1CCc2cccc3c2[C@H]1Cc1ccc(O)c(O)c1-3 [APOMORPHINE] |  | 302 |  |  |  |  | 
11 | CCC(=O)OC1(c2ccccc2)CCN(CCCC(=O)c2ccc(F)cc2)C[C@H]1C (some centres not stated) | 5.49 | 8.67 |  | 1.59 | 7.33 | 0.65 | 
